Data taken from PubChem BioAssay (NCI).
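Exposure lasted 48 hours, with cells grown in 96-well plates and compounds tested at five concentrations. TGI is the concentration that stops growth completely.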

How the values were obtained:
Assay in all cases: NCI anticancer screen, dose series, 48 h
[1] = system: SK-OV-3 ovarian
[2] = system: HOP-62 NSCLC
[3] = system: OVCAR-4 ovarian
[4] = system: EKVX NSCLC
[5] = system: SF-268 CNS
[6] = system: IGROV1 ovarian
[7] = system: U251 CNS
[8] = system: K-562 leukemia
[9] = system: UO-31 renal
[10] = system: MALME-3M melanoma
[11] = system: A498 renal
[12] = system: SNB-78 CNS
[13] = system: KM20L2 colon
[14] = system: HCT-15 colon
[15] = system: SNB-19 CNS
[16] = system: SF-539 CNS
[17] = system: CCRF-CEM leukemia
[18] = system: MOLT-4 leukemia
[19] = system: RPMI-8226 leukemia
[20] = system: OVCAR-5 ovarian
[21] = system: CAKI-1 renal
[22] = system: NCI-H522 lung
[23] = system: HOP-18 NSCLC
[24] = system: HOP-92 NSCLC
[25] = system: SK-MEL-28 melanoma
[26] = system: DMS 114 small cell lung
[27] = system: 786-0 renal
[28] = system: HCC-2998 colon
[29] = system: SW-620 colon
[30] = system: OVCAR-3 ovarian
[31] = system: HCT-116 colon
[32] = system: UACC-62 melanoma
[33] = system: M19-MEL melanoma
[34] = system: SK-MEL-5 melanoma
[35] = system: A549 NSCLC
[36] = system: DLD-1 colon
[37] = system: XF 498 CNS
[38] = system: SF-295 CNS
[39] = system: DMS 273 small cell lung
[40] = system: M14 melanoma
[41] = system: LOX IMVI melanoma
[42] = system: HL-60(TB) leukemia
[43] = system: SN12C renal
[44] = system: COLO 205 colon
[45] = system: NCI-H460 lung
[46] = system: HT29 colon
[47] = system: NCI-H23 lung
[48] = system: KM12 colon
[49] = system: RXF 393 renal
[50] = system: SK-MEL-2 melanoma
[51] = system: ACHN renal
[52] = system: TK-10 renal
[53] = system: SNB-75 CNS
[54] = system: UACC-257 melanoma
[55] = system: OVCAR-8 ovarian
[56] = system: NCI-H226 lung
[57] = system: LXFL 529 NSCLC
[58] = system: SR leukemia

CCOc1ccc(NC(=O)/C(=C/c2ccccc2)C(C)=O)cc1 showed a TGI [1] of 40.7 µM, a TGI [2] of 30.3 µM and a TGI [3] of 27.5 µM. For the same compound, the TGI [4] was 35.4 µM, the TGI [5] was 30.7 µM and the TGI [6] was 29.1 µM. For the same compound, the TGI [7] was 28.5 µM, the TGI [8] was 41.4 µM and the TGI [9] was 21.6 µM. It also gave a TGI [10] of 31.6 µM, a TGI [11] of 35.3 µM and a TGI [12] of 38.8 µM. The TGI [13] was 32.5 µM, the TGI [14] was 32.4 µM and the TGI [15] was 24.9 µM. For the same compound, the TGI [16] was 23.3 µM, the TGI [17] was 10.5 µM and the TGI [18] was 19.5 µM. The TGI [19] was 10.6 µM, the TGI [20] was 36.5 µM and the TGI [21] was 25.3 µM. The TGI [22] was 7.66 µM, the TGI [23] was 25.5 µM and the TGI [24] was 28 µM. It also gave a TGI [25] of 26 µM, a TGI [26] of 26.9 µM and a TGI [27] of 24.8 µM. The TGI [28] was 27.1 µM, the TGI [29] was 33.2 µM and the TGI [30] was 25.3 µM. For the same compound, the TGI [31] was 17.5 µM, the TGI [32] was 20.1 µM and the TGI [33] was 27.7 µM. It also gave a TGI [34] of 25.6 µM, a TGI [35] of 60.8 µM and a TGI [36] of 24 µM. For the same compound, the TGI [37] was 28.9 µM, the TGI [38] was 29.4 µM and the TGI [39] was 43.2 µM. The TGI [40] was 26 µM, the TGI [41] was 25.2 µM and the TGI [42] was 9.66 µM. The TGI [43] was 35 µM, the TGI [44] was 33.1 µM and the TGI [45] was 30.9 µM. It also gave a TGI [46] of 33.3 µM, a TGI [47] of 24.8 µM and a TGI [48] of 27.5 µM. The TGI [49] was 19 µM, the TGI [50] was 26.4 µM and the TGI [51] was 35.3 µM. It also gave a TGI [52] of 32.9 µM, a TGI [53] of 17.9 µM and a TGI [54] of 27.9 µM. The TGI [55] was 43.1 µM and the TGI [56] was 32.4 µM.

COc1ccc(Br)c(CCCCC(=O)O)c1 was tested, and the TGI [1] was over 100 µM, the TGI [2] was over 100 µM and the TGI [3] was over 100 µM. It also gave a TGI [4] of over 100 µM, a TGI [6] of over 100 µM and a TGI [7] of over 100 µM. It also gave a TGI [8] of over 100 µM, a TGI [11] of over 100 µM and a TGI [12] of over 100 µM. For the same compound, the TGI [13] was over 100 µM, the TGI [14] was over 100 µM and the TGI [15] was over 100 µM. It also gave a TGI [16] of over 100 µM, a TGI [57] of over 100 µM and a TGI [17] of over 100 µM. The TGI [18] was over 100 µM, the TGI [19] was over 100 µM and the TGI [21] was over 100 µM. The TGI [23] was over 100 µM, the TGI [24] was 76.3 µM and the TGI [25] was over 100 µM. For the same compound, the TGI [26] was over 100 µM, the TGI [27] was over 100 µM and the TGI [28] was over 100 µM. It also gave a TGI [29] of over 100 µM, a TGI [30] of over 100 µM and a TGI [31] of over 100 µM. The TGI [32] was over 100 µM, the TGI [33] was over 100 µM and the TGI [34] was over 100 µM. The TGI [35] was over 100 µM, the TGI [36] was over 100 µM and the TGI [37] was over 100 µM. It also gave a TGI [38] of over 100 µM, a TGI [39] of over 100 µM and a TGI [40] of over 100 µM. The TGI [41] was over 100 µM, the TGI [42] was over 100 µM and the TGI [43] was over 100 µM. It also gave a TGI [44] of over 100 µM, a TGI [45] of over 100 µM and a TGI [46] of over 100 µM. For the same compound, the TGI [47] was over 100 µM, the TGI [49] was over 100 µM and the TGI [51] was over 100 µM. For the same compound, the TGI [52] was over 100 µM, the TGI [53] was over 100 µM and the TGI [54] was over 100 µM. The TGI [55] was over 100 µM.

In the case of Cc1cc2c(C)nn(Cc3ccc(Cl)cc3Cl)c2c(C#N)c1C, the TGI [1] is reported as over 100 µM, the TGI [2] is reported as over 100 µM and the TGI [4] is reported as over 100 µM. For the same compound, the TGI [5] was over 100 µM, the TGI [6] was over 100 µM and the TGI [7] was over 100 µM. The TGI [9] was over 100 µM, the TGI [10] was over 100 µM and the TGI [12] was over 100 µM. For the same compound, the TGI [13] was over 100 µM, the TGI [14] was over 100 µM and the TGI [15] was over 100 µM. The TGI [16] was over 100 µM, the TGI [57] was over 100 µM and the TGI [17] was over 100 µM. The TGI [18] was over 100 µM, the TGI [19] was over 100 µM and the TGI [20] was over 100 µM. It also gave a TGI [23] of over 100 µM, a TGI [24] of 92.6 µM and a TGI [25] of over 100 µM. It also gave a TGI [27] of over 100 µM, a TGI [28] of over 100 µM and a TGI [29] of over 100 µM. For the same compound, the TGI [30] was over 100 µM, the TGI [31] was over 100 µM and the TGI [32] was over 100 µM. The TGI [33] was over 100 µM, the TGI [35] was over 100 µM and the TGI [36] was over 100 µM. For the same compound, the TGI [37] was over 100 µM, the TGI [38] was over 100 µM and the TGI [39] was over 100 µM. The TGI [41] was over 100 µM, the TGI [42] was over 100 µM and the TGI [43] was over 100 µM. For the same compound, the TGI [45] was over 100 µM, the TGI [46] was over 100 µM and the TGI [47] was over 100 µM. For the same compound, the TGI [49] was over 100 µM, the TGI [58] was over 100 µM and the TGI [50] was over 100 µM. The TGI [51] was over 100 µM, the TGI [52] was over 100 µM and the TGI [53] was over 100 µM. It also gave a TGI [54] of over 100 µM, a TGI [55] of over 100 µM and a TGI [56] of over 100 µM.

With COc1cc(-c2[nH]ncc2CCCC(=O)Nc2ccccc2[N+](=O)[O-])ccc1O the TGI [1] was over 100 µM, the TGI [2] was over 100 µM and the TGI [3] was over 100 µM. For the same compound, the TGI [4] was over 100 µM, the TGI [5] was over 100 µM and the TGI [6] was over 100 µM. It also gave a TGI [7] of over 100 µM, a TGI [8] of over 100 µM and a TGI [9] of over 100 µM. It also gave a TGI [10] of 48.9 µM, a TGI [11] of over 100 µM and a TGI [14] of over 100 µM. The TGI [16] was over 100 µM, the TGI [57] was over 100 µM and the TGI [17] was over 100 µM. For the same compound, the TGI [18] was over 100 µM, the TGI [19] was over 100 µM and the TGI [20] was over 100 µM. It also gave a TGI [21] of over 100 µM, a TGI [22] of over 100 µM and a TGI [23] of over 100 µM. It also gave a TGI [24] of over 100 µM, a TGI [25] of over 100 µM and a TGI [26] of 93.2 µM. The TGI [27] was over 100 µM, the TGI [28] was over 100 µM and the TGI [29] was over 100 µM. The TGI [31] was over 100 µM, the TGI [32] was over 100 µM and the TGI [34] was over 100 µM. For the same compound, the TGI [35] was over 100 µM, the TGI [36] was over 100 µM and the TGI [37] was over 100 µM. The TGI [38] was over 100 µM, the TGI [39] was over 100 µM and the TGI [40] was over 100 µM. For the same compound, the TGI [41] was over 100 µM, the TGI [42] was over 100 µM and the TGI [43] was over 100 µM. It also gave a TGI [44] of over 100 µM, a TGI [46] of over 100 µM and a TGI [47] of over 100 µM. The TGI [58] was over 100 µM, the TGI [51] was over 100 µM and the TGI [52] was over 100 µM. It also gave a TGI [53] of over 100 µM, a TGI [54] of over 100 µM and a TGI [55] of over 100 µM. It also gave a TGI [56] of over 100 µM.
